Assay results from ChEMBL document CHEMBL4229333, “Effects of rigidity on the selectivity of protein kinase inhibitors” (Eur J Med Chem, 2018).

What was measured:
[1] = target: RAC-alpha serine/threonine-protein kinase (Homo sapiens) (UniProt P31749); test: Inhibition of AKT1 (unknown origin) at 1 uM by mobility shift microfluidics platform based assay relative to control
[2] = target: Dual specificity protein kinase CLK1 (Homo sapiens) (UniProt P49759); test: Inhibition of CLK1 (unknown origin) at 1 uM by mobility shift microfluidics platform based assay relative to control
[3] = target: Serine/threonine-protein kinase DCLK2 (Homo sapiens) (UniProt Q8N568); test: Inhibition of DCAMKL2 (unknown origin) at 1 uM by mobility shift microfluidics platform based assay relative to control
[4] = target: Dual specificity tyrosine-phosphorylation-regulated kinase 2 (Homo sapiens) (UniProt Q92630); test: Inhibition of DYRK2 (unknown origin) at 1 uM by mobility shift microfluidics platform based assay relative to control
[5] = target: Dual specificity tyrosine-phosphorylation-regulated kinase 4 (Homo sapiens) (UniProt Q9NR20); test: Inhibition of DYRK4 (unknown origin) at 1 uM by mobility shift microfluidics platform based assay relative to control
Dual specificity tyrosine-phosphorylation-regulated kinase 4 (Homo sapiens), sequence (Q9NR20 whole entry): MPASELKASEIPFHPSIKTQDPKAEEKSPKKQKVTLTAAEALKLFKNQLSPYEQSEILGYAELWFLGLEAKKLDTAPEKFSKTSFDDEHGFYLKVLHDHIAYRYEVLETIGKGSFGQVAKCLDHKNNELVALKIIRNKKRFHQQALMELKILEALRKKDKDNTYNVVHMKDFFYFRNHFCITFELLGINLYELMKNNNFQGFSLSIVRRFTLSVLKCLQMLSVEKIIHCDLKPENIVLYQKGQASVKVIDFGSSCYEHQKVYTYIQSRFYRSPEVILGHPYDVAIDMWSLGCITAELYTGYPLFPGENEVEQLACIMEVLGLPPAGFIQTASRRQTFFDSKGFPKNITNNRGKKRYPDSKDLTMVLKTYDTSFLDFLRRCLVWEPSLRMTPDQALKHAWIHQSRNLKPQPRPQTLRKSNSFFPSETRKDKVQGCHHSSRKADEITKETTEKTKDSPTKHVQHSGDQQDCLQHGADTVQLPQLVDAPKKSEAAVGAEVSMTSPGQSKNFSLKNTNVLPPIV

[6] = target: Ephrin type-B receptor 4 (Homo sapiens) (UniProt P54760); test: Inhibition of EPH-B4 (unknown origin) at 1 uM by mobility shift microfluidics platform based assay relative to control
[7] = target: Receptor tyrosine-protein kinase erbB-2 (Homo sapiens) (UniProt P04626); test: Inhibition of ERB-B2 (unknown origin) at 1 uM by mobility shift microfluidics platform based assay relative to control
[8] = target: Fibroblast growth factor receptor 3 (Homo sapiens) (UniProt P22607); test: Inhibition of FGFR3 (unknown origin) at 1 uM by mobility shift microfluidics platform based assay relative to control
[9] = target: Vascular endothelial growth factor receptor 3 (Homo sapiens) (UniProt P35916); test: Inhibition of FLT4 (unknown origin) at 1 uM by mobility shift microfluidics platform based assay relative to control
[10] = target: Interleukin-1 receptor-associated kinase 1 (Homo sapiens) (UniProt P51617); test: Inhibition of IRAK1 (unknown origin) at 1 uM by mobility shift microfluidics platform based assay relative to control
[11] = target: Tyrosine-protein kinase JAK1 (Homo sapiens) (UniProt P23458); test: Inhibition of JAK1 (unknown origin) at 1 uM by mobility shift microfluidics platform based assay relative to control
[12] = target: Mitogen-activated protein kinase 8 (Homo sapiens) (UniProt P45983); test: Inhibition of JNK1 (unknown origin) at 1 uM by mobility shift microfluidics platform based assay relative to control
[13] = target: Mitogen-activated protein kinase kinase kinase kinase 4 (Homo sapiens) (UniProt O95819); test: Inhibition of MAP4K4 (unknown origin) at 1 uM by mobility shift microfluidics platform based assay relative to control
Mitogen-activated protein kinase kinase kinase kinase 4 (Homo sapiens), sequence (O95819 2-1239 limits assumed): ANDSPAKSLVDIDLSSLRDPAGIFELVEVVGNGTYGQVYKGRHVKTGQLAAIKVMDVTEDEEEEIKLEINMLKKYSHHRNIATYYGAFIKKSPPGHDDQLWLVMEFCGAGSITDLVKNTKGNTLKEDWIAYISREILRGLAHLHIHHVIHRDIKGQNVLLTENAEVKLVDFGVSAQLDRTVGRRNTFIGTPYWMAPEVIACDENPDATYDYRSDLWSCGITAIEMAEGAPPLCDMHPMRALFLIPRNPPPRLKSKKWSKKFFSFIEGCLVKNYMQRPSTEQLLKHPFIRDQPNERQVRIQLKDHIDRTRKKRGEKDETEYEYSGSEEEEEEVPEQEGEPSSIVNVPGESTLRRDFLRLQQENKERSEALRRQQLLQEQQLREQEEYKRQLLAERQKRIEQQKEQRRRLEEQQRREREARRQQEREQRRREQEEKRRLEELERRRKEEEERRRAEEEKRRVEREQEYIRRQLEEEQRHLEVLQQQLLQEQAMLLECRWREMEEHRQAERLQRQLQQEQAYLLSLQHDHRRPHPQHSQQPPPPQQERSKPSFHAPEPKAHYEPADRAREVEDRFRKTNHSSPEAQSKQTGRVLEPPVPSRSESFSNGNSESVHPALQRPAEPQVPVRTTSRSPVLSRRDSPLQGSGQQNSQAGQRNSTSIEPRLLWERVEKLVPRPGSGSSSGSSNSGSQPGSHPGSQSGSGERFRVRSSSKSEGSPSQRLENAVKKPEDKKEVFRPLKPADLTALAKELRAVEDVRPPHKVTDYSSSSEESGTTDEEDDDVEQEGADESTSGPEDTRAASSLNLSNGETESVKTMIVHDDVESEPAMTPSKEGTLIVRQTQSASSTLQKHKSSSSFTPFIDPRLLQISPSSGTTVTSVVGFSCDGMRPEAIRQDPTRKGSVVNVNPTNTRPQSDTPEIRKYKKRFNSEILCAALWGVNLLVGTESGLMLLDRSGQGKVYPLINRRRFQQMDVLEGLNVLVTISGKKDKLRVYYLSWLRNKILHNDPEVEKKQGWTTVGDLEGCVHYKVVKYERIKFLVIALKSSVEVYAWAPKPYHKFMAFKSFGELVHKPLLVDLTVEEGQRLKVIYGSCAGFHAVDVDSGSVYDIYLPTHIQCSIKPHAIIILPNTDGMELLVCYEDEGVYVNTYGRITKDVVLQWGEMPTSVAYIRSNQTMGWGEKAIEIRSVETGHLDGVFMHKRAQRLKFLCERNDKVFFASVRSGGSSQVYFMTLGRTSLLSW

[14] = target: Mitogen-activated protein kinase 1 (Homo sapiens) (UniProt P28482); test: Inhibition of MAPK1 (unknown origin) at 1 uM by mobility shift microfluidics platform based assay relative to control
[15] = target: Ribosomal protein S6 kinase alpha-4 (Homo sapiens) (UniProt O75676); test: Inhibition of MSK2 (unknown origin) at 1 uM by mobility shift microfluidics platform based assay relative to control
Ribosomal protein S6 kinase alpha-4 (Homo sapiens), sequence (O75676 whole entry, looked up): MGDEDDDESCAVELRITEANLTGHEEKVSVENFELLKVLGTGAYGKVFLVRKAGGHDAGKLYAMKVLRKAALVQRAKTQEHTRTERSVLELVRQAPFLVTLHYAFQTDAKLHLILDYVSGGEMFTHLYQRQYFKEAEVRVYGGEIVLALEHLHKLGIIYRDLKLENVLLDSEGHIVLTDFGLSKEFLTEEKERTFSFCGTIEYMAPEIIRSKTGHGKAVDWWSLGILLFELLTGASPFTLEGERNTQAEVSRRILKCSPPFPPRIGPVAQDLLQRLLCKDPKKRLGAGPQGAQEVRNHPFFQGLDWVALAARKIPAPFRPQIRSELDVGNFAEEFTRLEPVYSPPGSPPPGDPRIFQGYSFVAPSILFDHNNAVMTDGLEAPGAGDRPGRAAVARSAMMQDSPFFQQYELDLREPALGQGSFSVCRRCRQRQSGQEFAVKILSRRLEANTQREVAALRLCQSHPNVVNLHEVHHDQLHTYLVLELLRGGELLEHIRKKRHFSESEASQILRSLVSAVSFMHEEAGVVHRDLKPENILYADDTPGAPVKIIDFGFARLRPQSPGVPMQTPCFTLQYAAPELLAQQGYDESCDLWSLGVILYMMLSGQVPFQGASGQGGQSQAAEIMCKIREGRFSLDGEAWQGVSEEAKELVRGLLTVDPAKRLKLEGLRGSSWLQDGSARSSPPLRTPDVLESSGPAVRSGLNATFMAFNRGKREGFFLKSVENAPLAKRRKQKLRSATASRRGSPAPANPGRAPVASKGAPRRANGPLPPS

[16] = target: Serine/threonine-protein kinase 26 (Homo sapiens) (UniProt Q9P289); test: Inhibition of MST4 (unknown origin) at 1 uM by mobility shift microfluidics platform based assay relative to control
[17] = target: Serine/threonine-protein kinase Nek9 (Homo sapiens) (UniProt Q8TD19); test: Inhibition of NEK9 (unknown origin) at 1 uM by mobility shift microfluidics platform based assay relative to control
[18] = target: Serine/threonine-protein kinase PAK 4 (Homo sapiens) (UniProt O96013); test: Inhibition of PAK4 (unknown origin) at 1 uM by mobility shift microfluidics platform based assay relative to control
[19] = target: Serine/threonine-protein kinase PAK 5 (Homo sapiens) (UniProt Q9P286); test: Inhibition of PAK5 (unknown origin) at 1 uM by mobility shift microfluidics platform based assay relative to control
Serine/threonine-protein kinase PAK 5 (Homo sapiens), sequence (Q9P286 whole entry, looked up): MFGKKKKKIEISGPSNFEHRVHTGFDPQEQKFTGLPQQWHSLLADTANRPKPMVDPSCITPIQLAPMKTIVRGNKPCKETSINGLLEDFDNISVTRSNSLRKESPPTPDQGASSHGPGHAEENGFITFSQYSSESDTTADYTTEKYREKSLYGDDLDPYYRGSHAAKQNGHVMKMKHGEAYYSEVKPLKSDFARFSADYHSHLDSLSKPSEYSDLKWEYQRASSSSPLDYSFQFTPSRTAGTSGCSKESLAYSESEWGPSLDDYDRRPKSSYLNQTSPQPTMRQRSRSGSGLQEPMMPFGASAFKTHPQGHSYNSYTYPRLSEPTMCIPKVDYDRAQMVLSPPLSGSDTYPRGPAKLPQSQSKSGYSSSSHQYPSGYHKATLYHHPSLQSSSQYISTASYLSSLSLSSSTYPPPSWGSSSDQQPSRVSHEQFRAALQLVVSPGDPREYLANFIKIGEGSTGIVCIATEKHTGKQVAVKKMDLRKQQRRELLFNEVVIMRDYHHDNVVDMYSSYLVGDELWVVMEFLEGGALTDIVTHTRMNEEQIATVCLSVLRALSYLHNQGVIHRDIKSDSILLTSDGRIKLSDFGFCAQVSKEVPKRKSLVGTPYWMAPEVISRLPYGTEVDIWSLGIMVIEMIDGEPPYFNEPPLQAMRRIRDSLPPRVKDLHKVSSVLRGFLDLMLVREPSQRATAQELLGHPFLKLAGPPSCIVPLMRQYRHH

[20] = target: Eukaryotic translation initiation factor 2-alpha kinase 3 (Homo sapiens) (UniProt Q9NZJ5); test: Inhibition of PERK (unknown origin) at 1 uM by mobility shift microfluidics platform based assay relative to control
[21] = target: Serine/threonine-protein kinase pim-3 (Homo sapiens) (UniProt Q86V86); test: Inhibition of PIM3 (unknown origin) at 1 uM by mobility shift microfluidics platform based assay relative to control
[22] = target: Protein kinase C eta type (Homo sapiens) (UniProt P24723); test: Inhibition of PKC-eta (unknown origin) at 1 uM by mobility shift microfluidics platform based assay relative to control
Protein kinase C eta type (Homo sapiens), sequence (P24723 whole entry): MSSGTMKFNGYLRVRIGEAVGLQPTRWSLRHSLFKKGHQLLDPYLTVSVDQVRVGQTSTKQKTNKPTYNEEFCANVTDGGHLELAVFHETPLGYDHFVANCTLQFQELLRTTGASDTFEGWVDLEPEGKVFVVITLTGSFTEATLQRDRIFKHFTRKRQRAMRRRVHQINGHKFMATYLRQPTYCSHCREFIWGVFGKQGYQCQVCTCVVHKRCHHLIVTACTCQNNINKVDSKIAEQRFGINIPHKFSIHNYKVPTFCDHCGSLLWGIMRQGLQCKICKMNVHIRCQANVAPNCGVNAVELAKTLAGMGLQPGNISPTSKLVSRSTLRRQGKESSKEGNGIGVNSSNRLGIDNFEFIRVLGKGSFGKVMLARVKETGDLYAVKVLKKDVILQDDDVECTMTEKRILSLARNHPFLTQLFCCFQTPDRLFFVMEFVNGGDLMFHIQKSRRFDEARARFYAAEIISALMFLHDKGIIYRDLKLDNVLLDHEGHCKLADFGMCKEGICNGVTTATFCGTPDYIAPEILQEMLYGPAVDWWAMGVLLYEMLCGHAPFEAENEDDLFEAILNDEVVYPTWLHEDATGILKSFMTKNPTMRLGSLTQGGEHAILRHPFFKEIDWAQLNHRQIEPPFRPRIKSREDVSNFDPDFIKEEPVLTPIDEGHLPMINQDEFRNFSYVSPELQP

[23] = target: Protein kinase C gamma type (Homo sapiens) (UniProt P05129); test: Inhibition of PKC-gamma (unknown origin) at 1 uM by mobility shift microfluidics platform based assay relative to control
[24] = target: Protein kinase C zeta type (Homo sapiens) (UniProt Q05513); test: Inhibition of PKC-zeta (unknown origin) at 1 uM by mobility shift microfluidics platform based assay relative to control
[25] = target: Serine/threonine-protein kinase PLK3 (Homo sapiens) (UniProt Q9H4B4); test: Inhibition of PLK3 (unknown origin) at 1 uM by mobility shift microfluidics platform based assay relative to control
Serine/threonine-protein kinase PLK3 (Homo sapiens), sequence (Q9H4B4 whole entry, looked up): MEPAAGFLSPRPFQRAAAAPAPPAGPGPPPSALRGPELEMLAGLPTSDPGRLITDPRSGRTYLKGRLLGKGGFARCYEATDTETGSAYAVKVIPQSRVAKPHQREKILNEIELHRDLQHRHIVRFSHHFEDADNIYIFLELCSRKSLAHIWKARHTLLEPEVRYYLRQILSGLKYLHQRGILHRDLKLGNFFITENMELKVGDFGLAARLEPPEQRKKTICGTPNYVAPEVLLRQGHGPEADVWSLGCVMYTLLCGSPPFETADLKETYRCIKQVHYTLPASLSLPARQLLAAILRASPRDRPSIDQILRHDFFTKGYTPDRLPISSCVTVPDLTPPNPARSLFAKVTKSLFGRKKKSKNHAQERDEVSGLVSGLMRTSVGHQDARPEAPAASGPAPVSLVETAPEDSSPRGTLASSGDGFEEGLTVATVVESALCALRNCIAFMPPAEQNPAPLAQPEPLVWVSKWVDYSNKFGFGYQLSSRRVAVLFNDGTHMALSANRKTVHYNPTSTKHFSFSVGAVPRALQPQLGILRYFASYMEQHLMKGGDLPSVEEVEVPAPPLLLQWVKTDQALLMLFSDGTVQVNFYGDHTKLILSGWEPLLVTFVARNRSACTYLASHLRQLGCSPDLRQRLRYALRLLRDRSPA

[26] = target: Serine/threonine-protein kinase PLK1 (Homo sapiens) (UniProt P53350); test: Inhibition of PLK1 (unknown origin) at 1 uM by mobility shift microfluidics platform based assay relative to control
[27] = target: Serine/threonine-protein kinase D2 (Homo sapiens) (UniProt Q9BZL6); test: Inhibition of PRKD2 (unknown origin) at 1 uM by mobility shift microfluidics platform based assay relative to control
[28] = target: Sphingosine kinase 1 (Homo sapiens) (UniProt Q9NYA1); test: Inhibition of SPHK1 (unknown origin) at 1 uM by mobility shift microfluidics platform based assay relative to control
[29] = target: Activated CDC42 kinase 1 (Homo sapiens) (UniProt Q07912); test: Inhibition of TNK2 (unknown origin) at 1 uM by mobility shift microfluidics platform based assay relative to control
[30] = target: Testis-specific serine/threonine-protein kinase 2 (Homo sapiens) (UniProt Q96PF2); test: Inhibition of TSSK2 (unknown origin) at 1 uM by mobility shift microfluidics platform based assay relative to control
[31] = target: Tyrosine-protein kinase TXK (Homo sapiens) (UniProt P42681); test: Inhibition of TXK (unknown origin) at 1 uM by mobility shift microfluidics platform based assay relative to control
[32] = target: Tyrosine-protein kinase receptor TYRO3 (Homo sapiens) (UniProt Q06418); test: Inhibition of TYRO3 (unknown origin) at 1 uM by mobility shift microfluidics platform based assay relative to control
[33] = target: Tyrosine-protein kinase Yes (Homo sapiens) (UniProt P07947); test: Inhibition of YES (unknown origin) at 1 uM by mobility shift microfluidics platform based assay relative to control
[34] = target: Serine/threonine-protein kinase PLK4 (Homo sapiens) (UniProt O00444); test: Inhibition of PLK4 (unknown origin) at 1 uM by mobility shift microfluidics platform based assay relative to control

RAC-alpha serine/threonine-protein kinase (Homo sapiens), sequence (P31749 whole entry): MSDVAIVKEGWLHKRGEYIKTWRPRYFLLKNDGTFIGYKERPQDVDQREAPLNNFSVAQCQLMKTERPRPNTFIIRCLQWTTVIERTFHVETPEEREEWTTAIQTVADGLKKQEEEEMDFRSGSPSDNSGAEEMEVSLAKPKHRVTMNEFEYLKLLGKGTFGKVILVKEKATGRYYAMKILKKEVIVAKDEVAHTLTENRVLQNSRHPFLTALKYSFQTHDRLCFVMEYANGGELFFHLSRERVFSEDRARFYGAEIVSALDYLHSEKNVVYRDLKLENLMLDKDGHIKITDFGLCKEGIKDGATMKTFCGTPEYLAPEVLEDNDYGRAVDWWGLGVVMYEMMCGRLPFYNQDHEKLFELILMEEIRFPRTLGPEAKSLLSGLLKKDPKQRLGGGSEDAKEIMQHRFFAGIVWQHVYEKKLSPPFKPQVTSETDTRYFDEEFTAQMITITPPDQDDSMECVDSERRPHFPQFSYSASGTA

For `CC(C)n1nc(C#Cc2cccc3cc(-c4cccc(C(F)(F)F)c4)ncc23)c2c(N)ncnc21`, which inhibition [1] is on record?
The inhibition was 0%.

And the inhibition [2]?
The inhibition was -1%.

What about the inhibition [3] of the same compound?
Its inhibition is -1%.

What about the inhibition [4] of the same compound?
Its inhibition is -3%.

What about the inhibition [5] of the same compound?
Its inhibition is -7%.

What about the inhibition [6] of the same compound?
Its inhibition is 80%.

What about the inhibition [7] of the same compound?
The inhibition was 0%.

And the inhibition [8]?
The inhibition was 34%.

What about the inhibition [9] of the same compound?
The inhibition was 97%.

What about the inhibition [10] of the same compound?
The inhibition was -3%.

And the inhibition [11]?
Its inhibition is -3%.

And the inhibition [12]?
Its inhibition is 2%.

What about the inhibition [13] of the same compound?
The inhibition was 3%.

And the inhibition [14]?
Its inhibition is 2%.

What about the inhibition [15] of the same compound?
The inhibition was 5%.

And the inhibition [16]?
The inhibition was -1%.

And the inhibition [17]?
Its inhibition is -1%.

And the inhibition [18]?
The inhibition was 2%.

And the inhibition [19]?
The inhibition was -4%.

And the inhibition [20]?
The inhibition was 0%.

And the inhibition [21]?
Its inhibition is 1%.

And the inhibition [22]?
The inhibition was 2%.

What about the inhibition [23] of the same compound?
The inhibition was 2%.

What about the inhibition [24] of the same compound?
The inhibition was 4%.

And the inhibition [25]?
The inhibition was 0%.

And the inhibition [26]?
Its inhibition is 1%.

And the inhibition [27]?
The inhibition was 2%.

What about the inhibition [28] of the same compound?
The inhibition was 4%.

What about the inhibition [29] of the same compound?
The inhibition was 3%.

And the inhibition [30]?
Its inhibition is 1%.

What about the inhibition [31] of the same compound?
Its inhibition is 5%.

What about the inhibition [32] of the same compound?
The inhibition was 2%.

What about the inhibition [33] of the same compound?
The inhibition was 88%.

And the inhibition [34]?
The inhibition was 5%.

What does the source list for `CC(C)n1nc(C#Cc2cccc(NC(=O)c3cccc(C(F)(F)F)c3)c2)c2c(N)ncnc21`?
inhibition [1]: -1%; inhibition [2]: 2%; inhibition [3]: 0%; inhibition [4]: 11%; inhibition [5]: -1%; inhibition [6]: 97%; inhibition [7]: 58%; inhibition [8]: 52%; inhibition [9]: 99%; inhibition [10]: 28%; inhibition [11]: 97%; inhibition [12]: -9%; inhibition [13]: 69%; inhibition [14]: 0%; inhibition [15]: 3%; inhibition [16]: 9%; inhibition [17]: 2%; inhibition [18]: 0%; inhibition [19]: 0%; inhibition [20]: 29%; inhibition [21]: 0%; inhibition [22]: -5%; inhibition [23]: -1%; inhibition [24]: 2%; inhibition [25]: 3%; inhibition [26]: 1%; inhibition [27]: 1%; inhibition [28]: 2%; inhibition [29]: 13%; inhibition [30]: -10%; inhibition [31]: 94%; inhibition [32]: 67%; inhibition [33]: 101%; inhibition [34]: 74%
